Structures are written as SMILES.

One series deals with bfl1 gene. Put plainly: RNase protection analysis of bfl1 gene in MCF7 cells. The series is classed as cell-based, human. The note with it: 10 μM pre-treated 2 hours, TNF, FIG. 9. On the procedure: In a first specific gene expression experiment, RNAse protection analysis on the bfl1 gene, coding for BCL2-related protein A1 that has anti-apoptotic activity. FIG. 9 illustrates the results of the RNAse protection analysis. Cells were pre-treated with CpdA (10 μM) and DEX (1 μM) for 2 hours before TNF induction or non-induction for a total period of 8 hours. Total RNA was recovered (see hereunder for the total RNA extraction protocol) and an RNA protection Assay (hereinafter referred to as RPA) was performed. Transcripts were quantified by autoradiography followed by densiometry.
For the total RNA extraction, 10^5 cell were homogenized in 1 ml of TRIzol Reagent (GIBCO BRL), incubated 5 minutes at room temperature; then added 200 μl chloroform, vortexed 15 seconds. Mix was incubated on ice for 5 minutes. […]
RNase Protection Assay (Pharmingen) was used for the detection and quantitation of A1/bfl mRNA species. […] The pelleted RNA was re-suspended in 6 μl of gel loading buffer, incubated at 95° C. for 5 minutes, quickly quenched on ice and analyzed by electrophoresis on 6% polyacrylamide/8M urea gels. Visualization and quantitation of radioactive bands was carried out by a Phosphorlmager and scanned using a bioimaging analyzer (Personal Molecular Imager® FX Bio-Rad). Densitometry analysis of autoradiograms was performed using Quantity One (Bio-Rad). […]

A short description of series [1]: MTT test, cell viability of A549 cells. The series is classed as cell-based, human. The note with it: human, A549 lung epithelial (carcinoma) cells, read-out: Block of A549 cell viability. On the procedure: The MTT test is a standard assay addressing cell toxicity of a compound. It is based on the principle that after 3-4 hours of cell incubation with MTT (3-(4,5-dimethylthiazole-2-yl)-2,5-diphenyl tetrazolium bromide) so-called purple formazan crystals develop in living and early apoptotic cells. Dead cells don't produce formazan crystals.
Different cell lines were tested. Unless indicated differently, A549 human lung epithelial cells (derived from lung carcinoma) and L929sA murine fibroblast cells were cultured in DMEM with 10% FCS, 100 U/ml penicillin and 100 μg/ml streptomycin. Unless indicated differently, the human multiple myeloma cell lines L363, U266 and MM1.S were cultured in RPMI 1640 with Glutamax-I, supplemented with 10% FCS, 100 U/ml penicillin and 100 μg/ml streptomycin. Cells were seeded at 5000 cells/well (for adherent A549 and L929sA cells) or at 10000 cells/well (for the multiple myeloma lines in suspension) in 96 well plates. Cells were incubated in the presence of the respective synephrine compounds or vehicle (EtOH; for control test) in a final volume of 0.2 ml for 24 or 48 hours at 37° C. Subsequently, 20 μl of MTT solution (5 mg/ml in phosphate-buffered saline) was added to each well. After 4 hours incubation at 37° C., 80 μl of the extraction buffer (10% SDS, 0.01 M HCl) was added. After overnight incubation at room temperature, the optical densities at 590 nm were measured. Results are illustrated in FIGS. 2 to 6 and are expressed as percentage of viable cells as compared to vehicle-treated controls.
In a further MTT test, the activity of the synephrine derivatives on the inhibition of cell viability of non-immune cells was measured. […] Tests were performed for 24 hours and for 48 hours. The results are illustrated by FIGS. 5A and 5B for L929 cells, and by FIGS. 6A and 6B for A549 cells. It was observed that CpdA at 10^−5 M blocked cell viability of L929sA and A549 for not more than 10%.
On the technique in general: Tetrazolium dyes change colour on reduction, which living cells bring about.

The next series relates to MCF7 breast cancer cells. The conditions noted are these: 10^−5 M. How it is done: In further experiments, nylon arrayfilter hybridization experiments were performed. cDNA array analyses were carried out according to the instructions of the manufacturer (SuperArray Simplicity GEArray™ KIT) on the cDNA arrays cancer pathway finder and stress and toxicity array. Total RNA, obtained by the protocol as described herein above, was used as a template for [α−^33P]-cDNA probe synthesis using the following steps:
A second array hybridization experiment was performed on Human Stress and Toxicity Pathway Finder GEarray Q series. The same protocol was followed as for the array hybridization experiment on the Human Cancer Pathway Finder described herein above.

Turning to `CNCC(Cl)c1ccc(OC(C)=O)cc1.Cl` (stereo not drawn) [CpdA, 2-(4-acetoxyphenyl)-2-chloro-N-methyl-ethylammonium chloride], the “Transcription of bfl1 gene (RNase protection)” value with bfl1 gene was “inhibits transcription of the prosurvival gene A”. In addition, the cytotoxicity at 24 h in series [1] (10^−4 M, 24 hours, FIG. 6A) was 20%. In addition, the cytotoxicity at 48 h in series [1] (10^−4 M, 48 hours, FIG. 6B) amounted to 40%. In addition, the cytotoxicity in series [1] (10^−5 M, 24 hours and 48 hours, FIGS. 6A and 6B) is at most 10%. Also, in the series on MCF7 breast cancer cells, the “Gene response of CRYAB, DNAJA1, pcna, mdm2” value is recorded as “increased gene response” and the “Levels of HSPA1A, HSPA1B, HSPA4 (=hsp70), CSF2, SCYA4 (MIP1B), ANXA5, casp10, casp8, ERCC5, TNFSF6 (FasL)” value was “increases levels”.
